Results on 3 compounds are retold here after patent publication US12234232B2, “Aromatic heterocyclic compound with kinase inhibitory activity” (SHANGHAI ENNOVABIO PHARMACEUTICALS CO., LTD., priority 2018, dated 2025).

pIC50: −log10 of the molar value.

Series [1] addresses T1, JAK1 (Homo sapiens, UniProt P23458). Briefly: Cellular JAK1 activity assay: IL-6-stimulated STAT3 phosphorylation in TF-1 cells. The note with it: IL-6 (30 ng/mL), pSTAT3, read-out: IC50 Cell JAK1. Details: endogenous in cells; host or cells: TF-1 cells (ATCC). In kind it is cell-based. The method, then: (§1) In TF-1 cells, IL-6 stimulation leads to phosphorylation of STAT3 through JAK1, while EPO stimulants phosphorylation of STAT5 via JAK2.
(§2) TF-1 cells were obtained from American Type Culture Collection (ATCC). TF-1 cells were starved overnight (cell density was 100,000 cells/well at plating) in OptiMEM medium without phenol red containing 0.5% fetal bovine serum (FBS), 0.1 mM non-essential amino acids (NEAA), 1 mM sodium pyruvate at 37° C. The compound was serially diluted in DMSO, added to TF-1 cells and incubated at 37° C. for 20 minutes. The final concentration of DMSO was 0.2%. Then, human recombinant cytokine IL-6 (30 ng/mL) or EPO (10 U/mL) was added to the wells containing TF-1 cells. After the cell plate was incubated for 30 minutes, cells were lysed, and the phosphorylation of STAT3 (IL-6) or STAT5 (EPO) in the cell lysate (pSTAT3/total STAT3 Elisa Kit: CST #7300C/CST #7305C; pSTAT5 and total STAT5 Elisa Kit: Abcam #ab205715) was measured. The IC50 value was determined as the concentration of the compound required to inhibit STAT phosphorylation by 50% relative to the measured DMSO control.

Series [2] has as its target T2, JAK2 (Homo sapiens, UniProt O60674). In words: Cellular JAK2 activity assay: EPO-stimulated STAT5 phosphorylation in TF-1 cells. In kind it is cell-based. Details: endogenous in cells; host or cells: TF-1 cells (ATCC). The note with it: EPO (10 U/mL), pSTAT5, read-out: IC50 Cell JAK2. The method, then:
as §1, §2

The target of series [3] is T1, JAK1. In words: In vitro JAK1 kinase activity assay (HTRF kinEASE TK). In kind it is biochemical. Further details: purchased Thermo Fisher. The following applies: 1.1 μM ATP, 60 minutes, room temperature; read-out: IC50 JAK1 (enzyme activity assay). The method, then:
(§3) Recombinant human JAK1 protein was purchased from Thermo Fisher. JAK2 and JAK3 proteins were purchased from Carna Biosciences. HTRF kinEASE TK kit was purchased from Cisbio Bioassays. BioTek microplate reader Synergy Neo 2 was used to read the plate.
(§4) The test compounds were of 4-fold serial dilution, and the final concentration ranged from 10 μM to 0.04 nM in duplicates for each concentration. The concentration of DMSO in the reaction system was 1%.
The reaction included 0.5 ng/μl JAK 1 protein kinase, 1 μM TK Substrate-biotin peptide substrate, 1.1 μM ATP, 1× enzymatic buffer, 5 mM MgCl2, 1 mM MnCl2, 1 mM DTT, and 2.5 nM SEB. The detection plate was White Proxiplate 384-Plus plate (PerkinElmer), and the mixture (10 μl) was reacted at room temperature for 60 minutes.
(§5) Reaction detection: 10 μl of detection reagent was added to the reaction plate containing final concentration of 0.125 μM of SA-XL665 and 5 μl 1×TK-Antibody. The mixture was incubated overnight at room temperature. The plate was read using Synergy Neo 2.
(§6) Data analysis: 665/620 Ratio was converted into inhibition rate (%) through the following formula: inhibition rate (%)=(Ratiomax−Ratiotest)/(Ratiomax−Ratiomin)×100%. Ratiomax is a positive control without detection compound, Ratiomin is a negative control without detection compound and kinase, Ratiotest is the detection value of each concentration of different compounds. 4 parameter curve fitting was performed to measure the IC50 (nM) values. The details are shown in, Table 1.
For orientation: TR-FRET usually uses a lanthanide donor and a delayed reading to cut background.

In series [4] the target is T2, JAK2. Briefly: In vitro JAK2 kinase activity assay (HTRF kinEASE TK). It counts as biochemical. Further details: purchased Carna Biosciences. The following applies: 2.7 μM ATP, 25 minutes, room temperature; read-out: IC50 JAK2 (enzyme activity assay). The method, then:
as §3, §4
The reaction included 0.001 ng/μl JAK 2 protein kinase, 1 μM TK Substrate-biotin peptide substrate, 2.7 μM ATP, 1× enzymatic buffer, 5 mM MgCl2, and 1 mM DTT. The detection plate was White Proxiplate 384-Plus plate (PerkinElmer), and the mixture (10 μl) was reacted at room temperature for 25 minutes.
as §5, §6

A further series is described as follows: Mouse pharmacokinetics. It counts as in vivo. The following applies: CD-1 mice, 5 mg/kg, P.O.; for Cmax / half-life / AUC(0-t): mouse, po, plasma; for AUC(0-t): read-out: AUC0-24 hr. The protocol: Test compound was intravenously (IV) or orally (PO) administrated to CD-1 mice. Blood samples were collected at different time points as indicated below. The concentration of the compounds in the mouse plasma was determined by LC-MS/MS and related parameters were calculated. The details are as follows: the required amount of the test product was taken to prepare a solution of the required concentration for intravenous injection or oral administration. The age of the animals was about 6-8 weeks at the beginning of the dosing experiment. Blood sampling time points are 0.083 h, 0.25 h, 0.5 h, 1 h, 2 h, 4 h, 8 h and 24 h after compound administration. The Phoenix WinNonlin 7.0 software was used to calculate the pharmacokinetic parameters through the blood drug concentration data at different time points.

The next series deals with T3, JAK3 protein (Homo sapiens, UniProt P52333).
T3 construct: purchased Carna Biosciences
T3 sequence (P52333 1-1124): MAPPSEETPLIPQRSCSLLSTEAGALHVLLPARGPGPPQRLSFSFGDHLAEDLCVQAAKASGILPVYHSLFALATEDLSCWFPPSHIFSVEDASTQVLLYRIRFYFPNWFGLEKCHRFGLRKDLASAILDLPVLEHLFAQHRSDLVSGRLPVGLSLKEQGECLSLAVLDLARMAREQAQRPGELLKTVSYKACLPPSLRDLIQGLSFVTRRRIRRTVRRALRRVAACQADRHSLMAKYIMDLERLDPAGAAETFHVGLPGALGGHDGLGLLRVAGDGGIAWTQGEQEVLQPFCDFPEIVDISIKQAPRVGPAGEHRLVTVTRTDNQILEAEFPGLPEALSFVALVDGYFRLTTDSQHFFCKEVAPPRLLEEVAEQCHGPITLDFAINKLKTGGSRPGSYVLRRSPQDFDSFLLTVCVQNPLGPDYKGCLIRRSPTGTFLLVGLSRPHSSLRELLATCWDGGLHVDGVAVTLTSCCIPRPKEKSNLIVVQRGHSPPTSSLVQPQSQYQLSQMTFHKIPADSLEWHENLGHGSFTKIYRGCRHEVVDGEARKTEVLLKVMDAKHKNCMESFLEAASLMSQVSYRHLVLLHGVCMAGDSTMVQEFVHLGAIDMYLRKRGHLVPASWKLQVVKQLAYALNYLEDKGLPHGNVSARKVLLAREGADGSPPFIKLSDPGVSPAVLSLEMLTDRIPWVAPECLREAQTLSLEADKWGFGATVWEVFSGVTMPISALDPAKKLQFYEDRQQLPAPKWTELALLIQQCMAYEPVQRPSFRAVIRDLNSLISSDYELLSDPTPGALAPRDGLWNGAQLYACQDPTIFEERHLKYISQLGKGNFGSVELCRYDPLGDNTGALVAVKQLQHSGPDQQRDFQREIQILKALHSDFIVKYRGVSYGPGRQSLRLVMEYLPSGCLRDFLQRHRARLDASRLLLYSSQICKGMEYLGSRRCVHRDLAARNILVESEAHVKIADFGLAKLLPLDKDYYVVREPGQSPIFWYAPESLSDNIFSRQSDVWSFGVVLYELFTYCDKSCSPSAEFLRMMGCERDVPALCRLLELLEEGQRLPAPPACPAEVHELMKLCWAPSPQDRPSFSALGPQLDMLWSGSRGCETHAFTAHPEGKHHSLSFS
Briefly: In vitro JAK3 kinase activity assay (HTRF kinEASE TK). In kind it is biochemical. The note with it: 0.75 μM ATP, 25 minutes, room temperature; read-out: IC50 JAK3 (enzyme activity assay). The protocol: as §3, §4
The reaction included […] JAK 3 protein kinase, 1 μM TK Substrate-biotin peptide substrate, 0.75 μM ATP, 1× enzymatic buffer, 5 mM MgCl2, and 1 mM DTT. The detection plate was White Proxiplate 384-Plus plate (PerkinElmer), and the mixture (10 μl) was reacted at room temperature for 25 minutes.
as §5, §6

T1 sequence (P23458 whole entry): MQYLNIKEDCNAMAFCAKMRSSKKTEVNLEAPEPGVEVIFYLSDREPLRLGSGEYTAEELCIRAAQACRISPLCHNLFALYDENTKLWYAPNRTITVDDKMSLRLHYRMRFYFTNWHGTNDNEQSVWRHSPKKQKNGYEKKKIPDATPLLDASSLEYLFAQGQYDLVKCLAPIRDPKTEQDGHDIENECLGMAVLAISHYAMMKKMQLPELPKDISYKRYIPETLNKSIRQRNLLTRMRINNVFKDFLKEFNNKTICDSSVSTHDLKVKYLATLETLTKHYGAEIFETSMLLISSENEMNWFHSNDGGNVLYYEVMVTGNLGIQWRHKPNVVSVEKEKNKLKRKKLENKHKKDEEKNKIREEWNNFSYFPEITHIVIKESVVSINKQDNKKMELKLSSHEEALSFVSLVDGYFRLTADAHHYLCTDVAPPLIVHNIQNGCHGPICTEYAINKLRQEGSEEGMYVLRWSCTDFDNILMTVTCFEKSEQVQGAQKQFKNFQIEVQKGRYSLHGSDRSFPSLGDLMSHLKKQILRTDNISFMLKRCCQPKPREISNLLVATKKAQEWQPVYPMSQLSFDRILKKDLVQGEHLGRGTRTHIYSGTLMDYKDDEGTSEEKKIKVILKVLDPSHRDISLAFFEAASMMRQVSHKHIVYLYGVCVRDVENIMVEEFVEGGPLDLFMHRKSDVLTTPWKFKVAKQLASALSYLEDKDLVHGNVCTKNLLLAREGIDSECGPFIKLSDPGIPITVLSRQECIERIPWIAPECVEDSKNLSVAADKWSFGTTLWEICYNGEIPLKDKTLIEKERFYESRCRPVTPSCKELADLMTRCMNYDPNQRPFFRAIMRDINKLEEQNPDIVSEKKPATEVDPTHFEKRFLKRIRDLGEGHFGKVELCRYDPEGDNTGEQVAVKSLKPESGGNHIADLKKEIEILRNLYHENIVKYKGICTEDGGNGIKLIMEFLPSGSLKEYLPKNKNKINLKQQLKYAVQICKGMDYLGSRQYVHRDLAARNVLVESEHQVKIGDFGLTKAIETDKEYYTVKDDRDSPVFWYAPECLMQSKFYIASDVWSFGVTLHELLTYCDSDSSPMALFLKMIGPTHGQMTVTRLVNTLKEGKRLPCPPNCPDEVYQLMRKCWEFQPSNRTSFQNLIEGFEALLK
T2 sequence (O60674 whole entry): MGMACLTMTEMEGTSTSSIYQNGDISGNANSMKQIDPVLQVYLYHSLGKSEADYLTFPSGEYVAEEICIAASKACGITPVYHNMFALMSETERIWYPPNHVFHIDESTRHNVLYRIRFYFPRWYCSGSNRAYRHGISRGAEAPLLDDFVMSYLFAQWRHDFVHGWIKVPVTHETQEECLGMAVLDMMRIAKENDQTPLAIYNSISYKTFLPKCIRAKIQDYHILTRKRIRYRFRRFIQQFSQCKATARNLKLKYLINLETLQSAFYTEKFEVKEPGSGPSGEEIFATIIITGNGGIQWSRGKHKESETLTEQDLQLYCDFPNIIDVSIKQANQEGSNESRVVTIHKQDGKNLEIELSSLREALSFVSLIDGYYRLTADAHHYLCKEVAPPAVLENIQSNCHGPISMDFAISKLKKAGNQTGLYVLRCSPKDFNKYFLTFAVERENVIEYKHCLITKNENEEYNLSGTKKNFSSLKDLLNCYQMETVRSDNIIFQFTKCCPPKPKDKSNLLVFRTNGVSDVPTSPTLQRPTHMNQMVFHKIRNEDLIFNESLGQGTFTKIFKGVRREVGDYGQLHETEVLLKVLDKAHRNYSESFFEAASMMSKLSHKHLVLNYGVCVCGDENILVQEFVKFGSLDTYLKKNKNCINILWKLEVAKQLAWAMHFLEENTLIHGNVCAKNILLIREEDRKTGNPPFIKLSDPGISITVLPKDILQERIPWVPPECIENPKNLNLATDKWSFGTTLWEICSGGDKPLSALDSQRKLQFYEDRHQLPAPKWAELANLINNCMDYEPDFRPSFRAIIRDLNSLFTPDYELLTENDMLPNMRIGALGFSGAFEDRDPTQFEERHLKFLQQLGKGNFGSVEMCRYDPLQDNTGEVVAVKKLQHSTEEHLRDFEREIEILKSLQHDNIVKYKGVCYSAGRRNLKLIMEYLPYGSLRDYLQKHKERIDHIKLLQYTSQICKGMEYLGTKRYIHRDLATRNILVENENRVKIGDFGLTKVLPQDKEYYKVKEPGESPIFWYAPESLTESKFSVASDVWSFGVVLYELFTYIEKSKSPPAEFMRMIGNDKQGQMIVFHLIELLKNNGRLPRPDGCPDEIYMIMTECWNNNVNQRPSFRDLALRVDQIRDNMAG

As usually defined, the pIC50 is −log10 of the IC50, conventionally taken in molar units. As usually defined, the Cmax is the highest concentration seen after dosing. What is called half-life is how long it takes for the measured level to halve. On to `CCC(C(=O)Nc1nccc2c(-c3nc(Nc4cccc(S(C)(=O)=O)c4F)ncc3C)c[nH]c12)N1CCN(C)CC1` (stereo in doubt) [Example 21, (R)—N-(3-(2-((2-Fluoro-3-(methylsulfonyl)phenyl)amino)-5-methylpyrimidin-4-yl)-1H-pyrrolo[2,3-c]pyridin-7-yl)-2-(4-methylpiperazin-1-yl)butanamide], for which the pIC50 on JAK1 [1] is above 7.00; at JAK2 [2] it was below 4.70; on JAK1 [3], above 8.30; on JAK2 [4] it was 5.00 to 7.00; on JAK3 protein it was 5.00 to 6.30. The same compound came in with a F in the series “Mouse pharmacokinetics” of 97.1%. This compound also came in with a maximum concentration (Cmax) in the series “Mouse pharmacokinetics” of 264 ng/mL. Besides, the half-life in “Mouse pharmacokinetics” is 2.61 h. Moreover, the AUC(0-t) in “Mouse pharmacokinetics” was determined as 1680 ng·h/mL.
Take `CC[C@H](C(=O)Nc1nccc2c(-c3nc(Nc4cccc(S(C)(=O)=O)c4F)ncc3C)c[nH]c12)N1CC2CCC(C1)N2C` [Example 25, (R)—N-(3-(2-((2-Fluoro-3-(methylsulfonyl)phenyl)amino)-5-methylpyrimidin-4-yl)-1H-pyrrolo[2,3-c]pyridin-7-yl)-2-(8-methyl-3,8-diazabicyclo[3.2.1]octane-3-yl)butanamide]: the pIC50 on JAK1 [1] was 6.00 to 7.00; at JAK2 [2] it was below 4.70; on JAK1 [3] it was above 8.30; on JAK2 [4], above 7.00; at JAK3 protein it was 5.00 to 6.30. The compound also showed a F in “Mouse pharmacokinetics” of 66.1%. Also, the Cmax in the series “Mouse pharmacokinetics” was found to be 155 ng/mL. Moreover, the half-life in the series “Mouse pharmacokinetics” is 3.57 h. Further, the AUC(0-t) in “Mouse pharmacokinetics” came to 946 ng·h/mL.
Turning to `Cc1cnc(Nc2cccc(S(C)(=O)=O)c2F)nc1-c1c[nH]c2c(NC(=O)NC(C)C)ncnc12` [Example 33], the negative logarithm of the IC50 (pIC50) on JAK1 [1] was below 6.00; at JAK2 [2], below 4.70; at JAK1 [3], 7.30 to 8.30; at JAK2 [4] it was 5.00 to 7.00; on JAK3 protein, above 6.30.
